These results are taken from publication PMC5680178, “D-Cateslytin, a new antimicrobial peptide with therapeutic potential” (Scientific Reports, 2017).

For experiment [1], the system named is Fusobacterium nucleatum (ATCC 49256). The experiment in a line: microbe, parasite or virus in culture. Particulars: ATCC49256, 24 h, read-out: MIC (MIC alone).
Procedure: (§1) According to the European Committee on Antimicrobial Susceptibility Testing[20], the effect of a combination between two antibacterial compounds can be evaluated by their FICI (Fractional Inhibitory Concentration Index). The FICI consists of the sum of the FICs of both antibacterial agents: FIC index = FICantimicrobial + FICD-Ctl. For each compound, the FIC was determined as the ratio between the MIC of the compound in combination (MICcombination) and the MIC of the compound acting alone (MICalone). On the basis of their FIC index, each combination was categorized as synergistic (≤0.5), additive (>0.5 to 1), indifferent (>1 to <4) or antagonistic (≥4).
(§2) Microorganisms were cultured according to the manufacturer’s or the owner’s instructions in their respective media: Luria Bertani broth (Sigma) was used for E. coli strains, Mueller Hinton broth (Difco) for S. aureus strains and Anaerobe Basal broth (Oxoid) for F. nucleatum, P. intermedia and P. micra.
(§3) The MIC was determined by broth microdilution. An overnight culture of each bacterial strain was diluted (approximately to OD600 = 0,001) and microorganisms were plated in 96-well plates in the presence of different concentrations of antimicrobials, D-Ctl or L-Ctl alone or in combination. Three technical replicates were performed for each condition. After 24 hours of incubation, the microorganism growth was assessed by optical density OD600 using a Multiskan™ EX microplate spectrophotometer (Thermo Fisher Scientific). […] Each experiment was performed with at least three biological replicates.
Experiment [2] concerns Parvimonas micra (ATCC 33270). The following applies: combination D-Ctl + amoxicillin.
Procedure: as §1, §2, §3
Experiment [3] has as its system Fusobacterium nucleatum (ATCC 49256). The following applies: combination D-Ctl + amoxicillin.
Procedure: as §1, §2, §3
Experiment [4] deals with Parvimonas micra (ATCC 33270). Kind of experiment: microbe, parasite or virus in culture. Particulars: ATCC33270, 24 h, read-out: MIC (MIC alone).
Procedure: as §1, §2, §3
The test system of experiment [5] is Prevotella intermedia (ATCC 49046). The experiment in a line: microbe, parasite or virus in culture. Particulars: ATCC49046, 24 h, read-out: MIC (MIC alone).
Procedure: as §1, §2, §3
For experiment [6] the test system is unchanged. Particulars: combination D-Ctl + amoxicillin.
Procedure: as §1, §2, §3

Converted amounts (≈) assume the structure as drawn.

Regarding `CC1(C)S[C@@H]2[C@H](NC(=O)[C@H](N)c3ccc(O)cc3)C(=O)N2[C@H]1C(=O)O` [Amoxicillin], the MIC came to 0.6 µg/mL (≈ 1.64 µM) in experiment [1], 0.5 µg/mL (≈ 1.37 µM) in experiment [4] and 0.5 µg/mL (≈ 1.37 µM) in experiment [5]. In addition, the FIC in experiment [2] (MICcombination/MICalone) is recorded as 0.25; in experiment [3] (MICcombination/MICalone), 0.5; in experiment [6] (MICcombination/MICalone), 0.25. Moreover, the Effect entry in experiment [2] (category by FIC index) is on record as “Synergistic”; in experiment [3] (category by FIC index) it was “Additive”; in experiment [6] (category by FIC index), “Synergistic”. For the same compound, the FICI is given as 0.5 in experiment [2] (sum of both FICs), 1.0 in experiment [3] (sum of both FICs) and 0.5 in experiment [6] (sum of both FICs).
